Consider 40 molecules from ChEMBL document CHEMBL3137361, “MMV Box P. falciparum screening”.

Some results are limits rather than exact numbers.

A word on the IC50: it is the concentration that inhibits the measured activity by half. A low value points to greater potency in that assay.

The test system of this assay is Plasmodium falciparum. In words: MMV: Growth inhibition of P. falciparum cultures was quantified using a parasite lactate dehydrogenase (LDH) assay. The cultures were diluted to 0.5% parasitemea and 2% hematocrit and subjected to each twofold serial dilutions of the compounds for 72 h (DMSO final concentration, 0.25%). After 72 h, the cultures were frozen. LDH activity of P. falciparum parasites in aliquots of freeze-thawed cultures was spectrophotometrically measured and the IC50s were determined. Type of assay: functional, organism-based. The conditions noted are these: FCR3, 72 h.

For `COc1ccccc1NC1=C(N2CCCCC2)C(=O)c2ccccc2C1=O`, the half-maximal inhibitory concentration (IC50) was determined as 50 nM.
As for `CN(C)c1ccc(C(O)(c2ccc(N(C)C)cc2)c2ccc(N(C)C)cc2)cc1` [METHYLROSANILINE], the figure is 47.3 nM; as for `CCCCCCC(O)(c1ccc(F)cc1)C(CN1CCOCC1)c1ccccc1` (stereo not given), greater than 5000 nM.
As to `CC(C)(C)CC(C)(C)NCC(O)COc1ccc(Cl)cc1Cl` (stereo not given), the IC50 was determined as 544 nM.
With `O=C1c2ccccc2C2=Nc3ccccc3SC(c3cccc(F)c3)C12` (stereo not given) the figure was 708 nM; with `COc1ccc(C(=O)C2CC2c2ccc(Cl)cc2)cc1` (stereo not given), 2700 nM.
In turn, `CCC(O)c1ccc(Br)cc1NC(=O)c1cccc(Cl)c1` (stereo not given) registered an IC50 of 1330 nM.
The molecule `OCCNc1nc(Nc2ccc(Cl)c(Cl)c2)nc2ccccc12` yielded an IC50 of 274 nM.
Regarding `COc1ccc(C(O)(CCC(C)C)C(CN2CCOCC2)c2ccc(Cl)cc2)cc1` (stereo not given), the 50% inhibitory concentration (IC50) is greater than 5000 nM.
With `O=C(Nc1ccc(Cl)c(Cl)c1)Nc1ccc(Cl)c(Cl)c1` the figure was 2020 nM; with `OC(CNCC1CCCO1)Cn1c2ccc(Cl)cc2c2cc(Cl)ccc21` (stereo not given), 291 nM.
With `O=C(Nc1ccc(N2CCCCC2)c(Cl)c1)c1ccc(Br)o1` the figure was 1090 nM.
`COc1ccc(C=C2SC(=N)N(c3ccccc3OC)C2=O)cc1` showed an IC50 of 287 nM.
`FC(F)(F)c1cccc(Nc2nc3ccccc3nc2Nc2cccc(C(F)(F)F)c2)c1`: half-maximal inhibition (IC50) was put at 1160 nM.
`Cc1ccc(Nc2nc(-c3ccccn3)cs2)cc1`: the IC50 stood at 1430 nM.
`Cc1cc(Nc2ccc(OCc3ccccc3)cc2)nc2cc(O)ccc12`: the half-inhibitory concentration (IC50) came out at 127 nM.
As for `COc1cccc(C2(C)Nc3ccccc3-c3nc4ccccc4n32)c1` (stereo not given), the figure is 388 nM; as for `CCc1ccc(Nc2cc(C)c3ccc(O)cc3n2)cc1`, 76.7 nM.
In the case of `O=C(NCC1Cc2cccc(-c3ccncc3)c2O1)c1csc2c1CCCC2` (stereo not given), the IC50 is greater than 5000 nM.
For the molecule `CSc1ccccc1C(=O)Nc1nc(-c2ccccn2)cs1`, the midpoint of inhibition, the IC50, lay at 2160 nM.
Consider `O=c1nc(C=Cc2ccc(Cl)cc2)oc2ccccc12`, for which the IC50 was greater than 5000 nM.
With `c1ccc(CNc2nc(Nc3ccccc3)nc3ccccc23)cc1`, the IC50 worked out at 430 nM.
As for `COc1ccc2sc(N(Cc3cccnc3)C(=O)c3ccc(C#N)cc3)nc2c1`, the figure is greater than 5000 nM.
As for `COCCNCC(O)Cn1c2ccc(Cl)cc2c2cc(Cl)ccc21` (stereo not given), the figure is 277 nM; as for `OC1=C2C(=Nc3ccccc3SC2c2ccccc2)c2ccccc21` (stereo not given), 337 nM.
As for `CC1(c2ccccc2)Nc2ccccc2-c2nc3ccccc3n21` (stereo not given), the figure is 394 nM.
In turn, `O=C(Nc1nc(-c2ccccn2)cs1)c1ccccc1Br` returned an IC50 of 2720 nM.
In the case of `OC(CNCc1ccccc1)Cn1c2ccccc2c2ccccc21` (stereo not given), half-maximal inhibition (IC50) required 717 nM.
With `CC(C)(C)c1ccc2c(c1)CN(Cc1ccc(Cl)cc1)CO2` the figure was 35.5 nM; with `FC(F)(F)c1cccc(Nc2nc(-c3ccccc3)nc3ncccc23)c1`, 905 nM; with `O=c1nc(C=Cc2ccc(Br)cc2)oc2ccccc12`, greater than 5000 nM.
`Cc1ccc(C)c(Cn2c(N3CCC(C(=O)NCc4cccs4)CC3)nc3ccccc32)c1`: the IC50 amounted to 1810 nM.
Turning to `COc1ccc(Nc2nc(NCc3ccccc3)c3ccccc3n2)cc1`, the IC50 stood at 204 nM.
Take `CCCCC(O)(c1ccc(Cl)cc1)C(CN1CCOCC1)c1ccc(Cl)cc1` (stereo not given): the concentration for half-maximal inhibition (IC50) was greater than 5000 nM.
The molecule `Brc1ccc(Nc2nc3ccccc3nc2Nc2ccc(Br)cc2)cc1` displayed a concentration for half-maximal inhibition (IC50) of 1560 nM.
Consider `Oc1c(CN2CCN(c3ccccc3F)CC2)cc(Br)c2cccnc12`, for which inhibition was half-maximal at 771 nM (IC50).
`CCn1nc(-c2ccc(C(=O)OC)cc2)nc2c(=O)n(C)c(=O)nc1-2` yielded an IC50 of 1510 nM.
With `OC(CNC1CCCCC1)Cn1c2ccc(I)cc2c2cc(I)ccc21` (stereo not given) the figure was 137 nM; with `O=C(Nc1cccc(C(F)(F)F)c1)c1cc(Cl)ccc1O`, 3620 nM; with `CCOc1cccc2sc(N(Cc3cccnc3)C(=O)C3CCCCC3)nc12`, greater than 5000 nM.
